From US6509365B1, “2-phenylbenzimidazoles and 2-phenylindoles, and production and use thereof” (BASF Aktiengesellschaft, priority 1998, dated 2003)

Experiments:
[1] = molecular target: T1, PARP enzyme present in the cells (human cell line C4I) (Homo sapiens, UniProt P09874); test: Test of PARP inhibitors in a cellular assay (H2O2-induced PAR formation, immunofluorescence); type: cell-based; conditions: 1 mM hydrogen peroxide, FITC signal standardized to DAPI
T1 construct: endogenous in cells; host or cells: human cell line C4I
T1 sequence (P09874 whole entry): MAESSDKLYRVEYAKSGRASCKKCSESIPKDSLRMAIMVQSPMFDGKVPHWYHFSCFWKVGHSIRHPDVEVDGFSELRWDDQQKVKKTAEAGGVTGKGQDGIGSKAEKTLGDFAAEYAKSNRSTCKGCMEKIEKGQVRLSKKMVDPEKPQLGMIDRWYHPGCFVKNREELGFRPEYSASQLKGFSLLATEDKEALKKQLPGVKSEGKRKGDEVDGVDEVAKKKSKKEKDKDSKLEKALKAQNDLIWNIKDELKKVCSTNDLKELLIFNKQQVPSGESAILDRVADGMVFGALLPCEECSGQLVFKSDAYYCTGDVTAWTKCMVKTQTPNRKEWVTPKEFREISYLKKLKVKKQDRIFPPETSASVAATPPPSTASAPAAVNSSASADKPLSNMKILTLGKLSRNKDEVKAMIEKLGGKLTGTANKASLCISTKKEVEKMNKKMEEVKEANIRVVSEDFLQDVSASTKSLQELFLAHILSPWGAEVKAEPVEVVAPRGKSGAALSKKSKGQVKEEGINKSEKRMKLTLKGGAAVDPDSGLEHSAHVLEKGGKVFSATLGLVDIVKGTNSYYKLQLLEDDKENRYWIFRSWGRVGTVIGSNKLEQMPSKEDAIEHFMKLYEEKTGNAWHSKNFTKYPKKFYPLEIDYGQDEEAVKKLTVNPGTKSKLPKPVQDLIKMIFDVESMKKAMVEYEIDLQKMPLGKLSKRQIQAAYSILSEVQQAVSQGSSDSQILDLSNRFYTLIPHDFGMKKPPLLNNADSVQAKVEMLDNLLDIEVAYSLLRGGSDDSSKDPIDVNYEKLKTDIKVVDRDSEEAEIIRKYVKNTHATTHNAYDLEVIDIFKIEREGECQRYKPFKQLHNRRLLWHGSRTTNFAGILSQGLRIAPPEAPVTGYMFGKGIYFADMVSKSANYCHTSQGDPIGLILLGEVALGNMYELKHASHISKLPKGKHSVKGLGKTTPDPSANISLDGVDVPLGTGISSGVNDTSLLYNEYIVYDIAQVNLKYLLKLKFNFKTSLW
Experimental: To test the action of PARP inhibitors, eukaryotic cell lines are treated with chemicals such that the DNA of the cell line is damaged and as a result the PARP enzyme present in the cells is activated. Due to the activation of the enzyme, chains of poly-ADP-ribose (PAR) are formed on proteins. These chains are bound by a specific antibody. This is in turn bound by a second antibody which is provided with a fluorescent label. The fluorescence is measured using a fluorescence scanner and behaves proportionately to the activity of the enzyme PARP. PARP inhibitors can be recognized by a weakening of the fluorescence signal. In order to prevent adulterations of the results by different cell counts, the DNA of the cells is labeled with a further dye and its fluorescence is likewise determined in the fluorescence scanner.
400,000 cells of the human cell line C4I are incubated at 37° C., 5% CO2 with 10% fetal bovine serum in RPMI medium in cell culture plates having 24 cavities until a thick cell lawn is obtained. The cells are washed with DMEM and the PARP inhibitors to be tested are added in various concentrations in DMEM. After incubation for 20 min at 37° C., a concentration of 1 mM is established using hydrogen peroxide and the mixture is incubated at 37° C. for a further 10 min. For the control, cells in some cavities are not treated with hydrogen peroxide (no PARP activation) or receive no inhibitor (maximal PARP activation). The cells are washed once with PBS and fixed at −20° C. for 10 min by addition of methanol/acetone mixture which is precooled to −20° C. (7 parts methanol, 3 parts acetone). The cells are then dried, rehydrated at room temperature for 10 min by addition of PBS, and nonspecific binding sites are blocked for 30 min at room temperature in PBS with 0.05% Tween 20 and 5% dried milk powder. […] The FITC and DAPI fluorescence is measured at several sites in the cavities with the aid of a fluorescence scanner. […] The IC50 values are calculated by semilogarithmic plotting of the standardized values of the various inhibitor concentrations.

circulatory shock = conditions: S. Cuzzocrea et al., Br. J. Pharmacol. 1997; cited from earlier work
[2] = Determination of the water solubility; type: physicochemical; conditions: pH 5 to 6 adjusted with sodium acetate solution, DMSO ≦1% if not a water-soluble salt
Experimental: A compound to be measured is dissolved directly in a specified volume of water and the resulting solution is adjusted to pH 5 to 6 using a sodium acetate solution so that the concentration of the active compound to be tested is achieved. If the measured substance is not present as a water-soluble salt, this was dissolved in as little dimethyl sulfoxide as possible and then diluted with water (final concentration of dimethyl sulfoxide ≦1%), after which the pH was additionally adjusted here too.

SMILES	IC50 [1] [nM]	other results
CN(C)CCc1cc(-c2nc3c(C(N)=O)cccc3[nH]2)ccc1[N+](=O)[O-] [Example 3]	118	–
NC(=O)c1cccc(N)c1 [3-aminobenzamide]	–	protective effects in a model for circulatory shock (circulatory shock): protective effects
COc1ccc(-c2nc3cccc(C(N)=O)c3[nH]2)cc1 [NU 1076]	–	solubility [2]: < 0.01%

Continued, in another order:

IC50 [1] [nM]	SMILES	other results
115	CCN(CC)CCN(C)c1ccc(-c2nc3c(C(N)=O)cccc3[nH]2)cc1 [Example 1]	–
119	CN(C)CCN(C)c1ccc(-c2nc3c(C(N)=O)cccc3[nH]2)cc1 [Example 2]	–
